PubChem BioAssay (NCI)
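Briefly, cells in 96-well plates were exposed to five compound concentrations for 48 h, and endpoints were estimated by linear interpolation. Here, GI50 denotes the concentration required for 50% inhibition of growth. TGI: concentration producing complete growth inhibition.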

How the values were obtained:
Assay in all cases: growth of human tumour cells (NCI), 48 h
[1] = system: BT-549 breast
[2] = system: COLO 205 colon
[3] = system: HCC-2998 colon
[4] = system: HT29 colon
[5] = system: KM12 colon
[6] = system: NCI-H460 lung
[7] = system: NCI/ADR-RES ovarian
[8] = system: SR leukemia
[9] = system: TK-10 renal
[10] = system: U251 CNS

Row | Compound | GI50 [1] [µM] | TGI [1] [µM] | GI50 [2] [µM] | TGI [2] [µM] | GI50 [3] [µM] | TGI [3] [µM] | GI50 [4] [µM] | TGI [4] [µM] | GI50 [5] [µM] | TGI [5] [µM] | GI50 [6] [µM] | TGI [6] [µM] | GI50 [7] [µM] | TGI [7] [µM] | GI50 [8] [µM] | GI50 [9] [µM] | TGI [9] [µM] | GI50 [10] [µM] | TGI [10] [µM] | TGI [8] [µM]
1 | COc1cc(/C=C/c2cc(/C=C/c3ccc(O)c(OC)c3)n(C(=O)Nc3ccc(F)cc3)n2)ccc1O | 1.18 | > 19.7 | 2.09 | 3.7 | 2.53 | 10.6 | 2.03 | 4.69 | 0.46 | 9.12 | 0.546 | 12.4 | 0.449 | 27.4 | 0.278 | 3.43 | 19.2 | 0.769 | 10.5 | 
2 | CC[C@@]12CCCN3CC[C@]4(c5cccc(OC)c5N(C(C)=O)[C@@H]4CC1)[C@H]32 |  | > 100 |  | > 100 |  | 51.1 |  | 44 |  | > 100 |  | > 100 |  | > 100 |  |  | > 100 |  | > 100 | 55.9
3 | CCc1ccc2c(c1)C(=O)c1c-2n(CCCBr)c(=O)c2cc([N+](=O)[O-])ccc12 | > 50 | > 50 | > 50 | > 50 | > 50 | > 50 | > 50 | > 50 | > 50 | > 50 | > 50 | > 50 | > 50 | > 50 | 19.1 | 15 | > 50 | 26 | > 50 | > 50
4 | O=C(CCl)N1c2ccccc2Oc2ccc3ccccc3c21 | 1.79 | 3.56 | 0.894 | 2.35 | 1.86 | 3.59 | 0.432 | 1.51 | 1.8 | 3.3 | 2 | 4.11 | 2.36 | > 24 | 0.305 | 0.769 | 1.7 | 1.36 | 2.7 | 1.06
5 | Cc1nc2c(nc1C)C(=O)c1ccccc1C2=O |  | 3.15 |  | 5.57 |  | 15 |  | 11.7 |  | 35.3 |  | 3.2 |  | 17.1 |  |  | 79.5 |  | 34.6 | 28.2
6 | O=C(O)c1cc(C(=O)O)cc(N2C(=O)c3ccccc3C2=O)c1 |  | > 100 |  | > 100 |  | > 100 |  | > 100 |  | > 100 |  | > 100 |  | > 100 |  |  | > 100 |  | > 100 | > 100
7 | O=C1/C(=C/c2ccc([N+](=O)[O-])cc2)COc2ccc(O)c(O)c21 | 1.44 | 3.19 | 1.47 | 3.69 | 1.76 | 3.38 | 2.2 | 5.85 | 1.58 | 3.47 | 1.74 | 3.84 | 2.66 | 9.33 | 0.463 | 1.68 | 3.99 | 0.785 | 3.55 | > 100
8 | COc1cc(C(=O)/C=C/c2sc(Cl)nc2Cl)cc(OC)c1OC | 1.87 | 3.6 | 1.72 | 3.9 | 1.8 | 3.31 | 2.21 | 5.53 | 1.92 | 3.84 | 2.29 | 5.29 | 1.97 | 4.07 | 0.384 | 2.06 | 4.93 | 1.88 | 3.69 | 3.23
9 | Cc1cc(=O)[nH]c2cc3oc4ccccc4c3cc12 |  | > 100 |  | > 100 |  | 16.3 |  | > 100 |  | > 100 |  | > 100 |  | > 100 |  |  | > 100 |  | > 86.6 | > 44.3
10 | COc1cc2nc(-c3ccc(C(F)(F)F)cc3)cc(OCCCN3CCC(O)CC3)c2cc1OC | 6.59 | 22.1 | 0.456 | 12.1 | 4.07 | 19.9 | 0.486 | 10.4 | 6.87 | 24 | 0.835 | 16 | 0.847 | 22.7 | 0.274 | 11.5 | 25.7 | 2.12 | 20.6 | 16.6
11 | O=C1c2cccnc2-c2nc(-c3ccccc3[N+](=O)[O-])cc3c2c1nc1ccccc13 | 16.7 | 73.2 | 24.4 | > 62.4 | 19.7 | 45 | 17.2 | 33.2 | 14.1 | > 55 | 12 | 33.8 | 22.3 | > 69.3 | 96.1 | 14.7 | 36.3 | 4 | 19.6 | > 100
12 | COc1cc2c(c(OC)c1O)C(=O)C(OC)C(c1ccc(O)c(O)c1)O2 (centres undefined) | 0.362 | > 100 | 23.5 | > 82.8 | 0.645 | > 100 | 6.1 | > 67.7 | 0.515 | > 100 | 0.364 | > 100 | 0.203 | > 100 | 0.0689 | 40 | > 100 | 0.418 | > 100 | > 100
13 | Cc1cc2nc(C(Cl)Cl)nc(-c3ccc(Cl)cc3)n2n1 | 2.75 | > 100 | 0.603 | 2.67 | 0.788 | 2.33 | 0.36 | 3.99 | 0.414 | 1.74 | 0.304 | 1.09 | 0.682 | 3.89 | 0.372 | 1.85 | 5.21 | 0.509 | 3.7 | > 21.1
14 | C[C@@H](CS(C)(=O)=O)Nc1ncc2cc(Oc3ccc(F)cc3F)c(=O)n(C)c2n1 | > 25 | > 25 | > 25 | > 25 | > 25 | > 25 | > 25 | > 25 | > 25 | > 25 | > 25 | > 25 | > 25 | > 25 | > 25 | > 25 | > 25 | > 25 | > 25 | > 25
15 | COc1ccc(-c2cc(-c3ccc(Nc4nc(Nc5ccccc5)nc(Nc5ccc(Cl)cc5)n4)cc3)nc(N)c2C#N)cc1 | 0.822 | 2.49 | 1 | 2.15 | 1.41 | 4.41 | 1.1 | 2.96 | 0.961 | 2.14 | 2.18 | > 39 | 3.66 | > 43.1 | 0.582 | 0.974 | 1.79 | 1.23 | 3.68 | 2.94
16 | COc1ccc2c(c1)C(=O)/C(=C/c1ccc(OCC(=O)Nc3nccs3)cc1)O2 | 3.86 | 15.3 | 0.979 | 5.09 | 15.2 | 31.7 | 5.31 | 29.2 | 0.431 | 18.8 | 15.5 | 34.4 | 27.3 | > 100 | 0.27 | 3.39 | 17.8 | 0.598 | 22.4 | 1.15
